US20230097975A1, “BORTEZOMIB COMPOSITIONS” (MAIA Pharmaceuticals, Inc., priority 2021, published 2023)
In brackets after ≈: the same amount, converted by molar mass.

Key:
[1] = Estimated solubility of bortezomib in select non-aqueous solvents (visual, incremental solvent addition); assay type: physicochemical
Procedure: The appearance of the solution was recorded.

[2] = cited from earlier work

Row | Observation ([1]; N-methyl pyrrolidone (NMP)) | Observation (solvent needed to dissolve approx. 25 mg) ([1]; alcohol (ethanol)) | Observation ([1]; benzyl alcohol) | Observation ([1]; dimethyl sulfoxide (DMSO)) | Estimated Solubility ([1]; in benzyl alcohol) [mg/mL] | Estimated Solubility ([1]; in dimethyl sulfoxide (DMSO)) [mg/mL] | Observation (solvent needed to dissolve approx. 25 mg) ([1]; propylene glycol) | Compound | Observation ([1]; glycerol) | Observation ([1]; polyethylene glycol 400) | Solubility in water [2] [mg/mL]
1 | Completely dissolved after 1 mL | Approximately 5.5 mL of solvent needed | Completely dissolved after 0.5 mL | Completely dissolved after 0.5 mL | > 50 | > 50 | Approximately 7 mL of solvent needed | CC(C)C[C@H](NC(=O)[C@H](Cc1ccccc1)NC(=O)c1cnccn1)B(O)O [Bortezomib, [(1R)-3-methyl-1-[[(2S)-1-oxo-3-phenyl-2-[(pyrazinylcarbonyl)amino]propyl]amino]butyl] boronic acid] | No significant dissolution observed up to 10 mL | No significant dissolution observed up to 10 mL | 
2 |  |  |  |  |  |  |  | OCc1ccccc1 [benzyl alcohol] |  |  | 35 (≈ 324 mM)
